Measurements taken from the NIST ThermoML archive (doi:10.1016/j.jct.2011.09.003).
± gives the expanded uncertainty stated by the source.

Key:
[1] = xn = mol fraction of the nth substance listed; conditions: 298.15 K; for surface tension liquid-gas: digital tensiometer; for mass density: 101 kPa, Liquid, Vibrating tube method
[2] = for surface tension liquid-gas: digital tensiometer; for mass density: 101.33 kPa, Liquid, Vibrating tube method

## CCCC[n+]1ccccc1.O=[N+]([O-])[O-] [1-butylpyridinium nitrate] + O
[1]; x1 = 0.0097
  surface tension liquid-gas: 43.71 ± 2.2 mN/m
  mass density: 1016.3 ± 1.6 kg/m3
[1]; x1 = 0.015
  surface tension liquid-gas: 40.11 ± 0.36 mN/m
  mass density: 1024.4 ± 1.3 kg/m3
[1]; x1 = 0.0359
  surface tension liquid-gas: 37.59 ± 0.31 mN/m
  mass density: 1051.1 ± 1.2 kg/m3
[1]; x1 = 0.0498
  surface tension liquid-gas: 37.5 ± 0.3 mN/m
  mass density: 1067 ± 1.1 kg/m3
[1]; x1 = 0.0593
  surface tension liquid-gas: 37.6 ± 0.3 mN/m
  mass density: 1076.1 ± 0.8 kg/m3
[1]; x1 = 0.0816
  surface tension liquid-gas: 38.02 ± 0.31 mN/m
  mass density: 1092.6 ± 0.7 kg/m3
[1]; x1 = 0.1136
  surface tension liquid-gas: 40.03 ± 0.31 mN/m
  mass density: 1113.6 ± 0.4 kg/m3
[1]; x1 = 0.2067
  surface tension liquid-gas: 41.69 ± 0.31 mN/m
  mass density: 1144.7 ± 0.3 kg/m3
[1]; x1 = 0.3247
  surface tension liquid-gas: 44.01 ± 0.32 mN/m
  mass density: 1165.5 ± 0.2 kg/m3
[1]; x1 = 0.447
  surface tension liquid-gas: 46.05 ± 0.33 mN/m
  mass density: 1176.9 ± 0.2 kg/m3
[1]; x1 = 0.633
  surface tension liquid-gas: 48.01 ± 0.34 mN/m
  mass density: 1182.2 ± 0.3 kg/m3
[1]; x1 = 0.7604
  surface tension liquid-gas: 49.25 ± 0.36 mN/m
  mass density: 1185.3 ± 0.3 kg/m3
[1]; x1 = 0.8226
  surface tension liquid-gas: 49.56 ± 0.37 mN/m
  mass density: 1186.6 ± 0.3 kg/m3
[1]; x1 = 0.9023
  surface tension liquid-gas: 50.78 ± 0.38 mN/m
  mass density: 1188 ± 0.4 kg/m3
[1]; x1 = 1
  surface tension liquid-gas: 51.53 ± 0.4 mN/m
  mass density: 1188.5 ± 0.4 kg/m3

## O [water] + CCCC[n+]1ccccc1.O=[N+]([O-])[O-]
[1]; x2 = 0
  surface tension liquid-gas: 72.03 ± 0.31 mN/m
  mass density: 1000 ± 0.1 kg/m3

## CCCC[n+]1ccccc1.O=[N+]([O-])[O-] [1-butylpyridinium nitrate]
[2]; 293.15 K
  surface tension liquid-gas: 52.32 ± 0.4 mN/m
  mass density: 1192.7 ± 0.4 kg/m3
[2]; 298.15 K
  surface tension liquid-gas: 51.53 ± 0.4 mN/m
  mass density: 1188.5 ± 0.4 kg/m3
[2]; 303.15 K
  surface tension liquid-gas: 51.21 ± 0.39 mN/m
  mass density: 1185.4 ± 0.4 kg/m3
[2]; 308.15 K
  surface tension liquid-gas: 50.97 ± 0.39 mN/m
  mass density: 1181.2 ± 0.4 kg/m3
[2]; 313.15 K
  surface tension liquid-gas: 50.53 ± 0.39 mN/m
  mass density: 1176.5 ± 0.4 kg/m3
[2]; 318.15 K
  surface tension liquid-gas: 49.99 ± 0.39 mN/m
  mass density: 1173.5 ± 0.4 kg/m3
[2]; 323.15 K
  surface tension liquid-gas: 49.53 ± 0.39 mN/m
  mass density: 1169.2 ± 0.4 kg/m3
[2]; 328.15 K
  surface tension liquid-gas: 49.3 ± 0.4 mN/m
  mass density: 1165.6 ± 0.4 kg/m3
[2]; 333.15 K
  surface tension liquid-gas: 48.96 ± 0.39 mN/m
  mass density: 1163.2 ± 0.4 kg/m3
[2]; 338.15 K
  surface tension liquid-gas: 48.64 ± 0.39 mN/m
  mass density: 1159.4 ± 0.4 kg/m3
